The results in this text go back to PubChem BioAssay (NCI).

Common to all, as to assay: inhibition of tumour cell growth, NCI panel, 48 h
Assay [1] deals with HCT-15 colon.
The subject of assay [2] is MDA-MB-435.
For assay [3], the system named is TK-10 renal.
Assay [4] concerns DU-145 prostate.
The test system of assay [5] is A549 NSCLC.
Assay [6] concerns HS 578T breast.
The test system of assay [7] is COLO 205 colon.
For assay [8], the system named is SNB-75 CNS.
For assay [9], the system named is OVCAR-4 ovarian.
The subject of assay [10] is MOLT-4 leukemia.
Assay [11] relates to UACC-257 melanoma.
Assay [12] relates to EKVX NSCLC.
For assay [13], the system named is SW-620 colon.
The test system of assay [14] is MDA-N.
The test system of assay [15] is MDA-MB-231 breast.
Assay [16] relates to SK-MEL-2 melanoma.

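Assay format: 96-well plates, 48-hour exposure. TGI: total growth inhibition.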

For `Fc1nc(-c2c3ccccc3c3sc4ccccc4n23)nc(N2CCOCCOCCOCCOCC2)n1`, the TGI in assay [1], in assay [2], in [3], in assay [4], in [5] and in [6] was greater than 100 µM each time. Moreover, the TGI in [7] was greater than 100 µM; in [8] it was 5.87 µM; in [9] it was greater than 100 µM; in assay [10], greater than 100 µM; in [11], greater than 100 µM; in assay [12], greater than 100 µM. Moreover, the TGI in assay [13], in assay [14] and in assay [15] was greater than 100 µM throughout.

With `O=C1/C(=C/c2ccc([N+](=O)[O-])cc2)Oc2cc(O)ccc21`, the TGI in [1] is 69.1 µM; in assay [2], greater than 100 µM; in [3], 82.5 µM; in [4], greater than 100 µM; in assay [5], 92.9 µM; in assay [6], 47.9 µM. In addition, the TGI in [8] is greater than 100 µM; in assay [9], greater than 100 µM; in assay [10], 44.4 µM; in assay [11], greater than 100 µM; in assay [12] it was 96.3 µM; in [13], greater than 100 µM. Further, the values for the TGI in assay [14] and in assay [15] were 60.2 µM and 73.9 µM, respectively.

In the case of `CN(C)Cc1cc(C(=O)/C=C/c2ccc(Cl)cc2Cl)cc(CN(C)C)c1O`, the TGI in assay [1] was found to be 14.6 µM; in assay [2], 17.1 µM; in assay [3] it was 24.2 µM; in [4] it was 16.7 µM; in assay [5] it was 11.9 µM; in assay [6], 15.8 µM. The TGI in [7] worked out at 2.76 µM; in assay [8] it was 16.7 µM; in assay [9] it was 13.1 µM; in [10], 4.71 µM; in assay [11], 17.6 µM; in assay [12] it was 19.7 µM. Besides, the TGI was found to be 11.3 µM in assay [13], 5.92 µM in assay [14] and 6.53 µM in assay [15].

Regarding `CC(C)(C)C1CC[C@H](O)[C@H]([C@@H](O)CC2CC(=O)N(c3ccccc3)C(=O)C2)C1` (stereo partly drawn), the TGI in assay [1], in assay [2], in assay [3], in assay [4], in [5] and in [6] was greater than 100 µM each time. The TGI in assay [8], in [9], in assay [10], in assay [11], in assay [12] and in assay [13] was greater than 100 µM each time. The TGI in assay [14] and in assay [15] was greater than 100 µM in each case.

As to `COc1ccc(C)cc1NC(=S)N/N=C/c1ccco1`, the TGI in [1] is greater than 100 µM; in assay [2], 92.2 µM; in [4] it was greater than 100 µM; in assay [5] it was greater than 100 µM; in assay [6], greater than 100 µM; in assay [7] it was 65.5 µM. In addition, the TGI in [16] was 39.9 µM; in assay [8], greater than 100 µM; in [9], greater than 100 µM; in [10], greater than 100 µM; in assay [11], greater than 100 µM; in assay [12], 64.3 µM. The TGI was greater than 100 µM in [13] and 68.7 µM in [14].

With `COc1ccc(C(=O)c2[nH]c(Nc3cc(C)ccn3)c(C(=S)Nc3ccccc3)c2N)cc1`, the TGI is 55.9 µM in [1]; 59.6 µM in [2]; 61.5 µM in assay [3]; greater than 100 µM in assay [4]; greater than 100 µM in [5]; 41.5 µM in assay [7]. The TGI in assay [16] is 24.2 µM; in assay [8] it was 50.9 µM; in assay [9], 36.5 µM; in assay [10], greater than 100 µM; in assay [11] it was 32.7 µM; in [12], greater than 100 µM. Besides, the figures for the TGI in assay [13], in assay [14] and in assay [15] were 71 µM, 56.2 µM and 44.5 µM, respectively.

For the compound `O=C(O)c1cc(-c2ccc3cc(O)c(O)cc3c2)ccc1O`, the TGI in assay [1], in [2], in assay [3], in assay [4], in [5] and in [6] was greater than 12.5 µM in each case. In addition, the TGI in assay [7], in [16], in assay [8], in [10], in assay [11] and in assay [13] was greater than 12.5 µM each time. Further, the TGI in [14] and in assay [15] was greater than 12.5 µM each time.

As to `CCC(=O)NC(NNS(=O)(=O)c1ccc(C)cc1)(C(F)(F)F)C(F)(F)F`, the TGI is greater than 100 µM in assay [1]; 48 µM in assay [2]; greater than 100 µM in assay [3]; greater than 100 µM in assay [4]; greater than 100 µM in assay [5]; greater than 100 µM in [6]. Further, the TGI in [7], in assay [16], in assay [8], in [10], in [11] and in assay [12] was greater than 100 µM in each case. The TGI was greater than 100 µM in assay [13], 54.3 µM in assay [14] and greater than 100 µM in assay [15].

Regarding `CCOc1ccc(NC(=O)/C=C/c2ccco2)cc1`, the TGI in [1] was greater than 100 µM; in assay [2] it was 22 µM; in [3] it was greater than 100 µM; in [4], greater than 100 µM; in assay [5], greater than 100 µM; in [6], greater than 100 µM. In addition, the TGI in [7], in assay [16], in assay [8], in [10], in [11] and in assay [12] was greater than 100 µM throughout. Moreover, the TGI in assay [13], in assay [14] and in assay [15] was greater than 100 µM in each case.

As for `COC(=O)c1c(C)c2c(c(C)c1O)OC(=O)c1c(C)cc(O)c(C=O)c1O2`, the TGI in assay [1], in assay [2], in assay [3], in assay [4], in assay [5] and in assay [6] was greater than 100 µM in each case. For the same compound, the TGI in assay [7], in assay [9], in [10], in [11], in assay [12] and in assay [13] was greater than 100 µM in each case. In addition, the TGI in assay [14] and in [15] was greater than 100 µM throughout.

On to `c1ccc(CSCCC(SCc2ccccc2)SCc2ccccc2)cc1`, for which the TGI in assay [1], in assay [3], in assay [4], in [5], in [6] and in assay [7] was greater than 10 µM throughout. Moreover, the TGI in [16], in [8], in assay [9], in assay [10], in assay [11] and in assay [12] was greater than 10 µM throughout. Besides, the TGI in assay [13], in assay [14] and in [15] was greater than 10 µM in each case.

In the case of `CC1(C)C2CCC1(C)C(NC(=O)COCCOCC(N)=O)C2` (stereo not drawn), the TGI in assay [2], in [3], in assay [4], in assay [5], in assay [6] and in assay [7] was greater than 100 µM in each case. Besides, the TGI in [8], in assay [9], in assay [10], in assay [11], in assay [12] and in [13] was greater than 100 µM in each case. The TGI in [14] and in assay [15] was greater than 100 µM throughout.

With `Cc1cc(O)c(C(O)c2ccccn2)cc1O` (stereo not drawn), the TGI in assay [1] was 34.1 µM; in [2] it was 35.3 µM; in assay [3] it was 31.8 µM; in [4], greater than 100 µM; in assay [5], greater than 100 µM; in [6] it was greater than 100 µM. Further, the TGI was 23.4 µM in assay [7]; 31.9 µM in [8]; greater than 100 µM in assay [10]; 36.5 µM in assay [12]; 41.1 µM in assay [13]; 36.2 µM in assay [14]. In assay [15], this compound returned a TGI of 33.3 µM.

With `COc1cccc(C2c3cc4c(cc3OC(N3CCCC3)C2c2ccccc2)OCO4)c1O` (stereo not drawn), the TGI turned out to be 37.3 µM in assay [1]; 22.8 µM in assay [2]; 73.6 µM in assay [3]; 90.5 µM in assay [4]; 61.4 µM in assay [5]; 8.53 µM in [6]. In addition, the TGI in assay [7] was 27.3 µM; in assay [16] it was 27.9 µM; in [10] it was 21.5 µM; in assay [11], 24.4 µM; in [12], 73.3 µM; in assay [13] it was 25.4 µM. Besides, in [14], the TGI stood at 24.6 µM.

As to `CN1CC[C@@]2(c3cccc(O)c3)CC(=O)/C(=C/c3ccc(Cl)c(Cl)c3)[C@H]1C2`, the TGI in assay [1] was found to be 3.77 µM; in [2] it was 2.8 µM; in assay [3] it was 27 µM; in assay [4] it was 16.4 µM; in assay [5], 11.5 µM; in [6], 7.19 µM. For the same compound, the TGI stood at 2.63 µM in [8]; 17.2 µM in [9]; 8.47 µM in assay [10]; 12.6 µM in [11]; 21 µM in assay [12]; 3.06 µM in [13]. In [14], this compound came in with a TGI of 3.77 µM.
